Here are results for 1 compound from PMC10563396, “Anti-Inflammatory Role of TRPV4 in Human Macrophages” (ImmunoHorizons, 2023).

In this experiment the target is TRPV4 (Homo sapiens, UniProt Q9HBA0). The experiment in a line: fura […] Ca2+ imaging dose response in human primary monocyte-derived macrophages (endogenous TRPV4); response reduced by TRPV4 siRNA knockdown; EC50 […] (GM-CSF) and […] (M-CSF). The class given is cell-based.
Chain of TRPV4 (Q9HBA0 whole entry): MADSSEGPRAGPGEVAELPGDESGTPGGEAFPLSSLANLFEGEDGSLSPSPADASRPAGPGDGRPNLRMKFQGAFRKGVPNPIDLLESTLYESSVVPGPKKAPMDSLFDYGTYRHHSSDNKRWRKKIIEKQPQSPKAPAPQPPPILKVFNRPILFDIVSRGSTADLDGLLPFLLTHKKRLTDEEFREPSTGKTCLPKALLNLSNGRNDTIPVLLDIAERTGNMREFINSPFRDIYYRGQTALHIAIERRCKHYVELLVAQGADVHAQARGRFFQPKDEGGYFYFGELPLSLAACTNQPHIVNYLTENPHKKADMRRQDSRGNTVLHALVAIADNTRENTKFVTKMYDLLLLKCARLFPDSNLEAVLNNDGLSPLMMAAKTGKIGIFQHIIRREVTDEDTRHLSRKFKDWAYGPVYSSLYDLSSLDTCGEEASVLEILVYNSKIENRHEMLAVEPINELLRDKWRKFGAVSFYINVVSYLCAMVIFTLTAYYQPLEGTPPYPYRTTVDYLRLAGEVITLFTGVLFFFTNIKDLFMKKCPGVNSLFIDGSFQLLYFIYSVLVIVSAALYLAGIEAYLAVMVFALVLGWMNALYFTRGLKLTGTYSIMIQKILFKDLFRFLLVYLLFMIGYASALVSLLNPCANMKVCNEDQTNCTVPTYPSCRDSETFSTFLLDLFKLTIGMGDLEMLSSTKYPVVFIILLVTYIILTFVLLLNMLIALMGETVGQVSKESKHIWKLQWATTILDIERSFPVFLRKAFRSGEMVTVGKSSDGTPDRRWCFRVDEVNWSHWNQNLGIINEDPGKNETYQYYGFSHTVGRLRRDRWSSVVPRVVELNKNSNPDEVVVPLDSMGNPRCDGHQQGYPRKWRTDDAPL

As usually defined, the EC50 is the concentration at which the effect is half-maximal. Read a high EC50 as a need for much substance. For `CC(C)C[C@H](NC(=O)c1cc2ccccc2s1)C(=O)N1CCN(C(=O)[C@H](CO)NS(=O)(=O)c2ccc(Cl)cc2Cl)CC1` [GSK1016790A], the EC50 was 580 nM.
